From ChEMBL document CHEMBL1201862, “PubChem BioAssay data set” (2004)
Structures can show the parent of a compound that is named as a salt. Active and inactive are the calls of the source.

Experiments:
[1] = target: Aryl hydrocarbon receptor (Homo sapiens, UniProt P35869); conditions: Potency;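 also: confirmatory quantitative high-throughput screen measuring activation of the AhR signaling pathway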
[2] = target: T1, Mitochondrial peptide methionine sulfoxide reductase (Bos taurus, UniProt P54149); assay type: functional;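 as to IC50: absorbance read-out, biochemical high-throughput dose-response screen for MsrA inhibitors, confirmatory; recombinant bovine MsrA coupled to E. coli TrxB with NADPH and selenocystamine; potency is for inhibitors of MsrA activity on DMSO substrate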
T1 sequence (P54149 whole entry): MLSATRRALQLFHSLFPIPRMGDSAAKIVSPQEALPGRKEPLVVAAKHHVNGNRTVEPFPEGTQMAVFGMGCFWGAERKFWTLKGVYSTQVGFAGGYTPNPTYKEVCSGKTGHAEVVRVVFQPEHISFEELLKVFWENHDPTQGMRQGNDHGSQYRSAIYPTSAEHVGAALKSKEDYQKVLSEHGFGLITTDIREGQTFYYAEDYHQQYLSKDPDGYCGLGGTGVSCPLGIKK

[3] = target: T1, Mitochondrial peptide methionine sulfoxide reductase; experiment: Absorbance-based biochemical high throughput dose response assay for activators of Methionine sulfoxide reductase A (MsrA).; assay type: functional
[4] = activation of miR-122 Renilla sensor silencing – cell-based, Huh7 psiCHECK-miR122, Renilla luciferase, cherry-picked, dose response (AID 651956); assay type: functional;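 also: huh7 hepatoma cells stably carrying a psiCHECK-2 miR-122 sensor plasmid; renilla luciferase signal reporting endogenous miR-122 activity after 48 h compound exposure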
[5] = IGROV1 cell killing – plate reader, dry powder samples, PAX8 inhibitor project, dose response (AID 743043); assay type: functional, cell-based; conditions: IGROV-1
[6] = viability loss in LCL cells – cell-based, plate reader, dry powder, set 2, cytotoxicity control, dose response (AID 624367); assay type: functional
Paired box protein Pax-8 = Paired box protein Pax-8 (Homo sapiens, UniProt Q06710); experiment: PAX8 transcriptional activity inhibition in RMG-I – RMG-I cells, luciferase, cherry-pick, dose response (AID 687027); assay type: functional, cell-based;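 also: luciferase reporter driven by Pax8 target thyroperoxidase promoter measured by SteadyGlo luminescence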
Chain of Paired box protein Pax-8 (Q06710 whole entry): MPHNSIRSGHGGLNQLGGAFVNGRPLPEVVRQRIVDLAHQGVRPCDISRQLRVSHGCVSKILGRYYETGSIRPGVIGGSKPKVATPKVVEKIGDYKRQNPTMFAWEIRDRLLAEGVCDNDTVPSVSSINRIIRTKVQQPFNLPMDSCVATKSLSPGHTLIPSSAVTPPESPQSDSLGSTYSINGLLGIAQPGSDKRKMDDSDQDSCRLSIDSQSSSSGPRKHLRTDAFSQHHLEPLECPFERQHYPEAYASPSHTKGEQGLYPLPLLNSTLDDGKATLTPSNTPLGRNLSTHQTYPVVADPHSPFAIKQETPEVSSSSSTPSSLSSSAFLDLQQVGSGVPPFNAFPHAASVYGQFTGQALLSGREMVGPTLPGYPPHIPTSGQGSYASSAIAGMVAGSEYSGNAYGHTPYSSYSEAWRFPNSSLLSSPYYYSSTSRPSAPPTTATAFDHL

[7] = TNFa-induced NF-kB reporter signal decrease – HEK293 LMP1 reporter cells, dry powder, set 2, selectivity assay for EBV LMP1 NF-kB inhibitor project, dose response (AID 624369); assay type: functional
[8] = cytotoxicity in HEK293 background cells – cell-based, dry powder, set 2, counter-screen for EBV LMP1 inhibitor project, dose response (AID 624374); assay type: functional
[9] = target: T2, Small ubiquitin-related modifier 1 (Homo sapiens, UniProt P63165); experiment: SUMO1 protein-protein binding blockers, potency – biochemical, FRET, dose response (AID 624383); assay type: functional; conditions: read-out: IC50_Mean
T2 sequence (P63165 whole entry, the tested form may be a part): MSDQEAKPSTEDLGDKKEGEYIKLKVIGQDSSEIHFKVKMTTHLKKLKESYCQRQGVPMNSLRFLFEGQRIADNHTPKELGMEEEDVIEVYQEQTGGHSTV

[10] = target: Arf-GAP with SH3 domain, ANK repeat and PH domain-containing protein 1 (Homo sapiens, UniProt Q9ULH1); assay type: functional;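 also: biochemical fluorescence polarization dose–response screen measuring inhibition of ASAP1; ASAP1 GAP domain stimulating GTP hydrolysis by truncated human ARF1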
Chain of Arf-GAP with SH3 domain, ANK repeat and PH domain-containing protein 1 (Q9ULH1 whole entry, the tested form may be a part): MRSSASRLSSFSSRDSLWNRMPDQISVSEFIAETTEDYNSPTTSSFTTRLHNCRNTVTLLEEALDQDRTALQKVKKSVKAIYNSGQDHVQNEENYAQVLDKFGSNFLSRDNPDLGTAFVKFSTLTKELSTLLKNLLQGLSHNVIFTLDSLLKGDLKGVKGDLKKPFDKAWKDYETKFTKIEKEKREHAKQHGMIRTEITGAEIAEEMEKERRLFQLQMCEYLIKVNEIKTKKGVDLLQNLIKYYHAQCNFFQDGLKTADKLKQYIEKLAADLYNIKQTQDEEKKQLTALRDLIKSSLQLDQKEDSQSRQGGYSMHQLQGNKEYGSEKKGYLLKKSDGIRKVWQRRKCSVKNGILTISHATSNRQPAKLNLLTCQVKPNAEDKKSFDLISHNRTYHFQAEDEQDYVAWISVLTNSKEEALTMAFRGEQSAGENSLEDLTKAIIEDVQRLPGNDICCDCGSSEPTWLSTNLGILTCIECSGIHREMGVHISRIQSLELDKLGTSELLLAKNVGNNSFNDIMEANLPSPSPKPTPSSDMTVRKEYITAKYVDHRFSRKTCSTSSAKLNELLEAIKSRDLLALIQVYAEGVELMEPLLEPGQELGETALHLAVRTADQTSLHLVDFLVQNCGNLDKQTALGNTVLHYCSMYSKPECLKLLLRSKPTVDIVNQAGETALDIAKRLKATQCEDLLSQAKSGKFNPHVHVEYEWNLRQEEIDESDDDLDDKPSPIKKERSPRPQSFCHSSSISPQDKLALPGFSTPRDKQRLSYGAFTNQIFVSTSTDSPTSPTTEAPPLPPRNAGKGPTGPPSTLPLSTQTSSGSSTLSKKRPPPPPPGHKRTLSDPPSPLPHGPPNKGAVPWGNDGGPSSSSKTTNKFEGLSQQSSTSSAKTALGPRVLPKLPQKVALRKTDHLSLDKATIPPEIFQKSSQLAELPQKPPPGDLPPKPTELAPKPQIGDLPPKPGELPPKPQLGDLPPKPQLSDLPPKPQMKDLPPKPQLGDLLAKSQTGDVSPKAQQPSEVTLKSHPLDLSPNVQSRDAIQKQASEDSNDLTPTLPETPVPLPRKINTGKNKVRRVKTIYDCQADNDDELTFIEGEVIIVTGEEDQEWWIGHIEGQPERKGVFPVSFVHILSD

[11] = target: T2, Small ubiquitin-related modifier 1; experiment: SUMO1 protein interaction blockers, potency – biochemical, fluorescence polarization, uHTS hits, dose response (AID 624382); assay type: functional; conditions: read-out: IC50_Mean
[12] = target: Hepatocyte nuclear factor 4-alpha (Homo sapiens, UniProt P41235); assay type: functional, cell-based;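 also: biochemical luminescence-based dose-response counterscreen measuring inhibition of HNF4 dimerization, run alongside a screen for blockers of ABHD5–perilipin-5 interaction; split luciferase complementation of HNF4 fusion proteins in cell lysate measuring dimerization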
Chain of Hepatocyte nuclear factor 4-alpha (P41235 whole entry, the tested form may be a part): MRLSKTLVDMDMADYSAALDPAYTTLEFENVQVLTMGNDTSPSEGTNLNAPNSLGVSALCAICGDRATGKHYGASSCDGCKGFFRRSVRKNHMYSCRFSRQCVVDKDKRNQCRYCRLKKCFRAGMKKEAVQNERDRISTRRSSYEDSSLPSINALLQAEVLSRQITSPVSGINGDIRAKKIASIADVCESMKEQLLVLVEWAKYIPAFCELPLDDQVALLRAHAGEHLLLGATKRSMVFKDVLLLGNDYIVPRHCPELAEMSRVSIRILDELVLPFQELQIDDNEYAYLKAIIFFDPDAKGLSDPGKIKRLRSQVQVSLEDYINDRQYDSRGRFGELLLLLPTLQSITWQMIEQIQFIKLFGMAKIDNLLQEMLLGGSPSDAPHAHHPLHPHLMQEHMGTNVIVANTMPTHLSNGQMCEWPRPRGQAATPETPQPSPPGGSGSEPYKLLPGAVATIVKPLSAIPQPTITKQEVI

Chain of Aryl hydrocarbon receptor (P35869 whole entry): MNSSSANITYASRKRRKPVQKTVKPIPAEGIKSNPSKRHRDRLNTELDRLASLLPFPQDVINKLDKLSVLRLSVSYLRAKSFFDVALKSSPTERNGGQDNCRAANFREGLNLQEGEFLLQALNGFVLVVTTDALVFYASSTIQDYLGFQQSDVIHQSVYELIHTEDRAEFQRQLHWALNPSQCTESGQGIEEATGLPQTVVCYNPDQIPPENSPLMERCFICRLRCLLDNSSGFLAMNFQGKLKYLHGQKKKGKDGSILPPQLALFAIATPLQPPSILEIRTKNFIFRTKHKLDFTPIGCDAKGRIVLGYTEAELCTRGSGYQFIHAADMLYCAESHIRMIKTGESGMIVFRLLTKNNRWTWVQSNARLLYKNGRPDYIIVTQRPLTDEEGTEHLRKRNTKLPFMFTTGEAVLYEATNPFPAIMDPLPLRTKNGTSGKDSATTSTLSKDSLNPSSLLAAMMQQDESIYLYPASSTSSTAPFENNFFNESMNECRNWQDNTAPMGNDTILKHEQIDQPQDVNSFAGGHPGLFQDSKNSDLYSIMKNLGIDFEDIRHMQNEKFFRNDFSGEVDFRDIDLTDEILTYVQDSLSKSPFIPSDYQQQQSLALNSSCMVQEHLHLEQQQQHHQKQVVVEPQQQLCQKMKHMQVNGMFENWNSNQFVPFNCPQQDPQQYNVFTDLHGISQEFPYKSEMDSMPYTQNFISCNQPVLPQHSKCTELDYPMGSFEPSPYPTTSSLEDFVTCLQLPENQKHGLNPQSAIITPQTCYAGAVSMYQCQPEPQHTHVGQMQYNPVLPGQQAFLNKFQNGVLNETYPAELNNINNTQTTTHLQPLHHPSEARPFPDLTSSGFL

Q: For `O=C(O)C1(C(=O)Nc2ccc(Cl)cc2Cl)CC1`, which AC50 [1] is on record?
A: Its AC50 is 50.1 µM (inconclusive).

Q: With `Sc1nnc(C2CCCCC2)n1/N=C/c1ccccc1Br` as the compound, how does the IC50 [2] read?
A: Its IC50 is 155 µM (inactive).

Q: Which EC50 [3] does the source give for `CO/N=C/c1ccc(N2CCCC2)c([N+](=O)[O-])c1` here?
A: Its EC50 is > 104 µM (inactive).

Q: For `CNC(=O)C[C@@H]1CC[C@@H]2[C@@H](COc3ccc(NC(=O)Nc4ccc(F)c(F)c4)cc3C(=O)N2C)O1`, which AC50 [4] is on record?
A: The AC50 was 4.95 µM (active).

Q: With `O=C(C[C@H]1CC[C@H]2[C@@H](COC[C@@H](O)CN2Cc2ccc3c(c2)OCO3)O1)Nc1ccc(-c2ccccc2)cc1` as the compound, how does the AC50 [5] read?
A: The AC50 was 63.5 µM (active).

Q: What about the AbsAC35 [6] of the same compound?
A: The AbsAC35 was 77.89 µM.

Q: What about the AC50 (Paired box protein Pax-8) of the same compound?
A: The AC50 was 5.67 µM (active).

Q: And the AbsAC35 [7]?
A: Its AbsAC35 is 57.32 µM.

Q: What about the AbsAC35 [8] of the same compound?
A: Its AbsAC35 is 148.97 µM.

Q: What does the source list for `COc1cc(/C=N/NC(=O)c2ccc(O)cc2)ccc1OCC(=O)Nc1cccc([N+](=O)[O-])c1`?
A: IC50 [9]: 3.86 µM (active); IC50 [10]: 25.3 µM (inactive); IC50 [11]: > 66.6 µM (inactive)

Q: With `CCOc1cc(N)c(Cl)cc1C(=O)NCC1CN(Cc2ccc(F)cc2)CCO1` (stereo not drawn) [MOSAPRIDE CITRATE] as the compound, how does the IC50 [12] read?
A: The IC50 was 12.7 µM (inactive).
